Assays:
[1] = tested on: Escherichia coli (E. coli) strain ATCC 700928; test: Urinary tract infection model in C3H/OuJ mice, CK570: E. coli burden (CFU) in tissues; conditions: positive control, IV, all timepoints assessed
Description: The vehicle used in this study was 1×TBS.
C3H/OuJ female mice, aged approximately 8 weeks and weighing 21 to 24 grams, were used in this study. Mice were housed with 1 to 5 animals per cage and were provided food (5P76 Prolab isopro irradiated lab diet) and water ad libitum.
Mice were anesthetized with 1-4% isoflurane in oxygen for 2-3 minutes until a deep plane of anesthesia was achieved, confirmed by toe pinch reflex. Each mouse was then placed on a board, ventral side up, with the nose inserted into a nose cone supplying isoflurane. The lower abdomen was gently massaged to expel any urine in the bladder. […] For IV administration, mice were manually restrained in a restrainer device, and study treatment was administered via the lateral tail vein. A dose volume of 100 μL was used for IV injections. For IU administration, the same method was used as for the original administration of E. coli. A dose volume of 50 μL was used for IU administration.
All CFU data were log-transformed.

[2] = tested on: 300-strain clinical isolate panel with an additional 4 strains; test: Host range of CK618 and antibiotics alone and in combination, 304-isolate panel; type: cell-based, E. coli; conditions: antibiotic at concentration printed after name plus CK618
Description: (§1) The first assay used a panel of 88 contemporaneous urinary tract infection (UTI) isolates from North America, Europe, Latin America, and Asia. […] The second assay used a panel made up of a 300-strain clinical isolate panel (Table 14) with an additional 4 strains of interest. […] Four of the same SOC antibiotics tested against the 88-isolate panel were tested against this panel. The non-SOC antibiotics were not included due to their limited use in clinical settings, and nitrofurantoin was not included due to the low probability of resistance to this drug.
(§2) For both isolate panels, antibiotic concentrations tested were determined by using Clinical and Laboratory Standards Institute (CLSI) or European Committee on Antimicrobial Susceptibility Testing (EUCAST) breakpoints at concentrations that kill susceptible isolates but allow intermediate or resistant isolates to grow in the standard AST microdilution assay (Table 17).
(§3) The cocktail was then mixed with bacteria to obtain final titers of 1×10^6 plaque-forming unit (PFU)/mL/phage for the cocktail and 1×10^5 colony-forming unit (CFU)/mL for the bacteria, resulting in a multiplicity of infection (MOI) of 10 for each phage in a sample. […] Reactions were incubated at 37° C. with shaking and OD measurements were taken each hour for 20 hours.

[3] = tested on: 88 contemporaneous urinary tract infection (UTI) isolates; type: cell-based, E. coli; conditions: both isolate panels, Tables 18, 19
Description: as §1, §2, §3

Row | Molecule | bacterial burden in each tissue [1] | Host range % on all strains (n = 304), Combination: Antibiotic + LBP-CK618 [2] | host range on MDR and beta-lactam-resistant strains compared with all strains (in words) [3] | host range performance on all strains (in words) [3]
1 | O=C(O)c1cn(C2CC2)c2cc(N3CCNCC3)c(F)cc2c1=O [Ciprofloxacin] | significantly reduced bacterial burden to the LOD |  |  | 
2 | Trimethoprim/Sulfamethoxazole [TMP/SXT] |  | 81.9% |  | 
3 | C[C@@H]1O[C@@H]1P(=O)(O)O [Fosfomycin] |  | 97.0% | performed similarly regardless of antibiotic resistance status | strong activity across all strains

Reference: patent US20230398161A1 (priority 2020, published 2023)
